Reference: patent US20080280759A1, “6-(2-Fluoro-4-Alkoxyphenyl) Triazolopyrimidines, Their Preparation, Their Use For Controlling Harmful Fungi, and Compositions Comprising Them” (priority 2003, published 2008)

Tested on: Botrytis cinerea
Assay: Activity against gray mold on bell pepper leaves caused by Botrytis cinerea, protective application
Format: in vivo
Details: 250 ppm, sprayed the day before inoculation, assessed visually after 5 days, untreated plants 80% infected
Experimental: The active compounds were formulated separately as a stock solution with 0.25% by weight in acetone or DMSO. 1% by weight of the emulsifier Wettol EM 31 (wetting agent having emulsifying and dispersing action based on ethoxylated alkylphenols) was added to this solution. The stock solutions of the active compounds were diluted with water to the stated concentration. For examples 1 and 2, the active compounds were prepared as a stock solution with 25 mg of active compound which was made up to 10 ml using a mixture of acetone and/or DMSO and the emulsifier Uniperol® EL (wetting agent having emulsifying and dispersing action based on the ethoxylated alkylphenols) in a volume ratio of solvent/emulsifier of 99 to 1. The mixture was then made up with water to 100 ml. This stock solution was diluted with the solvent/emulsifier/water mixture described to the concentration of active compounds stated below. Bell pepper seedlings of the cultivar “Neusiedler Ideal Elite” were, after 2 to 3 leaves were well developed, sprayed to runoff point with an aqueous suspension having the concentration of active compounds stated below. The next day, the treated plants were inoculated with a spore suspension of Botrytis cinerea which contained 1.7×10^6 spores/ml in a 2% aqueous biomalt solution. The test plants were then placed in a dark climatized chamber at 22 to 24° C. and high atmospheric humidity. After 5 days, the extent of the fungal infection on the leaves could be determined visually in %.

Compound | fungal infection on the leaves
5-methoxy-6-(2,6-difluoro-4-methoxyphenyl)-7-(4-methyl-piperidinyl)-1,2,4-triazolo[1,5a]pyrimidine [Compound I-3] | no infection
COc1cc(F)c(-c2c(C#N)nc3ncnn3c2N2CCC(C)CC2)c(F)c1 [Compound I-1, 5-cyano-6-(2,6-difluoro-4-methoxyphenyl)-7-(4-methyl-piperidinyl)-1,2,4-triazolo[1,5a]pyrimidine] | no infection
COc1cc(F)c(-c2c(C)nc3ncnn3c2N2CCC(C)CC2)c(F)c1 [Compound I-2, 5-methyl-6-(2,6-difluoro-4-methoxyphenyl)-7-(4-methyl-piperidinyl)-1,2,4-triazolo[1,5a]pyrimidine] | no infection
